Test results published in the supplement of paper PMC10307832.

Columns and labels:
Assay in all cases: relative viability (nuclei count vs DMSO), 5 days (fraction); higher = more cells survive
RO-3306 + Navitoclax = compound: C1=CC2=C(C=CC(=C2)C=C3C(=O)NC(=NCC4=CC=CS4)S3)N=C1 [RO-3306] + CC1(C)CCC(c2ccc(Cl)cc2)=C(CN2CCN(c3ccc(C(=O)NS(=O)(=O)c4ccc(N[C@H](CCN5CCOCC5)CSc5ccccc5)c(S(=O)(=O)C(F)(F)F)c4)cc3)CC2)C1 [Navitoclax] (partner 0.5 µM)
Summary of the method: (§1)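 Each reported value is a median over duplicate plates. It expresses relative viability: treated-well nuclei count divided by vehicle-well nuclei count. Lung cancer cell lines in 1536-well plates were dosed by pin tool a day after seeding, alone with one drug or with a fixed anchor-drug dose plus five library-drug doses (not always all listed) in √10 steps, and nuclei were counted after 5 days.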

RO-3306 + Vorinostat = compound: C1=CC2=C(C=CC(=C2)C=C3C(=O)NC(=NCC4=CC=CS4)S3)N=C1 [RO-3306] + O=C(CCCCCCC(=O)Nc1ccccc1)NO [Vorinostat] (partner 1 µM)
Summary of the method: as §1

[1] = compound: O=S(=O)(c1ccccc1)N(CC(F)(F)F)c1ccc(C(O)(C(F)(F)F)C(F)(F)F)cc1 + CC1(C)CCC(c2ccc(Cl)cc2)=C(CN2CCN(c3ccc(C(=O)NS(=O)(=O)c4ccc(N[C@H](CCN5CCOCC5)CSc5ccccc5)c(S(=O)(=O)C(F)(F)F)c4)cc3)CC2)C1 [Navitoclax] (partner 0.5 µM)
Summary of the method: as §1

RO-3306 + Palbociclib = compound: C1=CC2=C(C=CC(=C2)C=C3C(=O)NC(=NCC4=CC=CS4)S3)N=C1 [RO-3306] + CC(=O)c1c(C)c2cnc(Nc3ccc(N4CCNCC4)cn3)nc2n(C2CCCC2)c1=O [Palbociclib] (partner 0.5 µM)
Summary of the method: as §1

Cell Line | relative viability (RO-3306 + Navitoclax; first compound 0.01 µM) | relative viability (RO-3306 + Navitoclax; first compound 0.03162 µM) | relative viability (RO-3306 + Navitoclax; first compound 0.1 µM) | relative viability (RO-3306 + Navitoclax; first compound 0.3162 µM) | relative viability (RO-3306 + Navitoclax; first compound 1 µM) | relative viability (RO-3306 + Vorinostat; first compound 0.01 µM) | relative viability (RO-3306 + Vorinostat; first compound 0.03162 µM) | relative viability (RO-3306 + Vorinostat; first compound 0.1 µM) | relative viability (RO-3306 + Vorinostat; first compound 0.3162 µM) | relative viability (RO-3306 + Vorinostat; first compound 1 µM) | relative viability ([1]; first compound 0.8 µM) | relative viability ([1]; first compound 2.53 µM) | relative viability ([1]; first compound 8 µM) | relative viability (RO-3306 + Palbociclib; first compound 0.01 µM) | relative viability (RO-3306 + Palbociclib; first compound 0.03162 µM) | relative viability (RO-3306 + Palbociclib; first compound 0.1 µM) | relative viability (RO-3306 + Palbociclib; first compound 0.3162 µM) | relative viability (RO-3306 + Palbociclib; first compound 1 µM)
LK-2 | 0.892 | 0.751 | 0.828 | 0.913 | 0.792 | 0.293 | 0.248 | 0.324 | 0.275 | 0.295 | 0.912 | 0.778 | 0.941 | 0.862 | 0.574 | 0.615 | 0.908 | 0.651
EKVX | 1.02 | 0.94 | 1.06 | 0.971 | 0.921 | 0.75 |  | 0.739 | 0.663 | 0.712 | 0.939 | 0.918 | 0.868 | 0.346 | 0.37 | 0.332 | 0.447 | 0.393
NCI-H1755 | 1.1 | 0.919 | 1.04 | 1.01 | 1.05 | 0.881 | 0.856 | 0.771 | 0.745 | 0.706 | 1.01 | 0.909 | 0.924 | 0.421 | 0.474 | 0.48 | 0.417 | 0.45
NCI-H460 | 1.26 |  | 1.26 | 1.35 | 1.22 | 1.19 | 0.517 | 0.677 | 0.976 | 0.448 | 1.42 | 1.01 | 0.967 | 0.191 | 0.12 | 0.142 | 0.26 | 0.136
NCI-H2405 | 0.91 | 0.735 | 0.934 | 0.949 | 0.834 | 1.01 | 0.949 | 0.968 | 0.916 | 0.231 | 1.11 | 1.01 | 0.896 | 0.553 | 0.45 | 0.562 | 0.518 | 0.494
LU99A | 0.916 | 0.708 | 0.866 | 0.747 | 0.803 | 0.648 | 0.626 | 0.461 | 0.432 | 0.388 | 1.02 | 0.694 | 0.776 | 0.438 | 0.418 | 0.425 | 0.374 | 0.386
NCI-H2087 | 0.999 | 1.15 | 0.995 | 1.08 | 0.937 | 0.775 | 0.805 | 0.756 | 0.864 | 0.86 | 1.03 | 0.942 | 0.916 | 0.226 | 0.233 | 0.171 | 0.238 | 0.197
SK-MES-1 | 1.36 | 1.25 | 1.22 | 1.36 | 1.2 | 1.35 | 1.12 | 1.12 | 1.32 | 1.08 | 1.42 | 1.33 | 1.21 | 0.355 | 0.305 | 0.352 | 0.289 | 0.272
HCC-827 | 1.04 | 0.988 | 0.99 | 0.994 | 0.998 | 0.946 | 0.7 | 0.881 | 0.789 | 0.859 | 1.02 | 0.999 | 0.949 | 0.462 | 0.477 | 0.461 | 0.54 | 0.54
